Measured values reported in patent US20090143317A1, “Quercetin Glycoside Composition and Method of Preparing the Same” (Suntory Limited, priority 2004, published 2009).

Experiments:
[1] = in vivo; cited from earlier work
[2] = Measurement of migration into the blood (orally administered in vivo absorbability); parameters: species or system SD male rats; conditions: rat, po, 150 umol/kg
Description: Blood was collected from the tail vein 0 minutes (before the administration), 30 minutes, 1 hour, and 3 hours after the administration, and heparin was added thereto. Centrifugation was then performed, and, from the supernatant, heparin plasma samples were prepared. The concentrations of quercetin-glucuronide conjugate and quercetin in the prepared heparin plasma samples were measured by HPLC under the following conditions. AUC (Area under the curve) (0 to 3 hr) (μg/ml·hr) was then calculated based on the area under the curve of the plasma concentration of quercetin-glucuronide conjugate (μg/ml) and the area under the curve of the plasma concentration of quercetin (μg/ml). Quercetin-glucuronide conjugate and quercetin are both in vivo metabolites of isoquercitrin. […] Subsequently, in the same manner as in Experiment 1, plasma was prepared, and the plasma concentration of quercetin-glucuronide conjugate and that of quercetin were measured by HPLC. […] Subsequently, in the same manner as in Experiment 1, plasma was prepared, and the plasma concentration of quercetin-glucuronide conjugate and that of quercetin were measured by HPLC. AUC (Area under the curve) (0 to 3 hr) (μg/ml·hr) was then calculated based on the area under the curve of the plasma concentration of quercetin-glucuronide conjugate (μg/ml) and the area under the curve of the plasma concentration of quercetin (μg/ml). […]

migration into the blood (orally administered in vivo absorbability), AUC (0 to 3 hr) of plasma quercetin-glucuronide conjugate plus quercetin [2] | SMILES | absorbability [1]
reduce absorbability | O=c1c(O[C@@H]2O[C@H](CO)[C@@H](O)[C@H](O)[C@H]2O)c(-c2ccc(O)c(O)c2)oc2cc(O)cc(O)c12 [IQC, quercetin 3-O-μ-D-glucopyranoside] | higher absorbability than quercetin and rutin
higher absorbability in this order | O=c1c(OC2OC(CO)C(OC3OC(CO)C(O)C(O)C3O)C(O)C2O)c(-c2ccc(O)c(O)c2)oc2cc(O)cc(O)c12 (centres unmarked) [IQC-G1] | 
 | O=c1c(O[C@@H]2O[C@H](CO)[C@@H](O)[C@H](O)[C@H]2O)c(-c2ccc(O[C@@H]3O[C@H](CO)[C@@H](O)[C@H](O)[C@H]3O)c(O)c2)oc2cc(O)cc(O)c12 [Quercetin-3,4′-β-D-glucoside] | higher absorbability
 | O=c1c(O)c(-c2ccc(O[C@@H]3O[C@H](CO)[C@@H](O)[C@H](O)[C@H]3O)c(O)c2)oc2cc(O)cc(O)c12 [Quercetin-4′-β-D-glucoside] | higher absorbability
